Source: US5354549A, “Iodinated esters” (Nycomed Imaging AS, priority 1987, dated 1994)
Where two headings read alike, the source gives them in different places. Blank lines part the entries; values can stand above or below the compound they belong to.

Columns and labels:
[1] = In vitro biodegradation in Seronorm (release of Isopaque analysed by HPLC); assay type: in vitro ADME; conditions: pH 7.4, 37° C.
Description: (§1) The powdered product of Example 1 is suspended in Seronorm (5 mg/ml) (Seronorm is a trade mark of Nycomed AS) at pH 7.4 and agitated at 37° C. As a control the experiment is also performed in phosphate buffered saline (PBS) at pH 7.4. At different time points samples are taken from the supernatant after centrifugation of the vial (4,000 rpm, 10 minutes). The release of Isopaque (5-(N-acetylamino)-3-(N-acetyl-N-methylamino)-2,4,6-triiodobenzenecarboxylic acid) is analysed by HPLC. More than 50% of the substance is hydrolysed during 6 hours and after 24 hours 90% is hydrolysed.
(§2) The powdered product of Example 3 is suspended in Seronorm (0.5 mg/ml) at pH 7.4 and agitated at 37° C. As a control the experiment is also performed in phosphate buffered saline (PBS) at pit 7.4. At different time points samples are taken from the supernatant after centrifugation of the vial (4,000 rpm, 10 minutes). The release of Isopaque (5-(N-acetylamino)-3-(N-acetyl-N-methylamino)-2,4,6-triiodobenzenecarboxylic acid) is analysed by HPLC. 4.1% of the substance is hydrolysed during 24 hours. In PBS 0.12% is hydrolysed during 72 hours.
as §2, with “Example 10” for “Example 3”, “at pH” for “at pit”, “HPLC. […]” for “HPLC. 4.1% of the substance is hydrolysed during 24 hours.”, “PBS 58%” for “PBS 0.12%”
as §2, with “Example 4” for “Example 3”, “Seronorm at” for “Seronorm”, “mg/ml)” for “mg/ml) at”, “at pH” for “at pit”, “HPLC. […] In PBS 34% was” for “HPLC. 4.1% of the substance is”, “hours.” for “hours. In PBS 0.12% is hydrolysed during 72 hours.”

[2] = In vitro biodegradation, control in phosphate buffered saline (PBS); assay type: in vitro ADME; conditions: for degraded at 72 h: pH 7.4, 72 hours
Description: as §1, §2
as §2, with “Example 10” for “Example 3”, “at pH” for “at pit”, “HPLC. […]” for “HPLC. 4.1% of the substance is hydrolysed during 24 hours.”, “PBS 58%” for “PBS 0.12%”
as §2, with “Example 4” for “Example 3”, “Seronorm at” for “Seronorm”, “mg/ml)” for “mg/ml) at”, “at pH” for “at pit”, “HPLC. […] In PBS 34% was” for “HPLC. 4.1% of the substance is”, “hours.” for “hours. In PBS 0.12% is hydrolysed during 72 hours.”

[3] = read-out: substance hydrolysed in PBS

metabolised at 6 h ([1]; 5 mg/ml, 6 hours, read-out: substance hydrolysed): > 50% | metabolised at 24 h ([1]; 5 mg/ml, read-out: substance hydrolysed): 90% | hydrolysis in PBS ([2]; pH 7.4, control): no hydrolysis could be detected
SMILES: CC(=O)Nc1c(I)c(C(=O)OCOC(=O)C(C)(C)C)c(I)c(N(C)C(C)=O)c1I [Example 1, Pivaloyloxymethyl 5-(N-acetylamino)-3-(N-acetyl-N-methylamino)-2,4,6-triiodobenzenecarboxylate]

metabolised at 24 h ([1]; 0.5 mg/ml, read-out: substance hydrolysed): 4.1% | degraded at 72 h [2, 3]: 0.12%
SMILES: CC(=O)Nc1c(I)c(C(=O)OC(C)OC(=O)C(C)(C)C)c(I)c(N(C)C(C)=O)c1I (stereo not shown) [Example 3, 1-(Pivaloylyloxy)ethyl 5-(N-acetylamino)-3-(N-acetyl-N-methyl-amino)-2,4,6-triiodobenzenecarboxylate]

metabolised at 2 h ([1]; 0.5 mg/ml, 2 hour incubation, read-out: substance hydrolysed): 29% | hydrolysis ([1]; 0.5 mg/ml, after 24 hours): hydrolysis is complete | degraded at 24 h ([2]; pH 7.4, 24 hours, read-out: substance hydrolysed in PBS): 34%
SMILES: CC(=O)Nc1c(I)c(C(=O)OC(C)OC(C)=O)c(I)c(N(C)C(C)=O)c1I (stereo not shown) [Example 4, 1-(Acetyloxy)ethyl 5-(N-acetylamino)-3-(N-acetyl-N-methylamino)-2,4,6-triiodobenzenecarboxylate]

hydrolysis of substrate ([1]; 0.5 mg/ml, after 2 hours): completely hydrolysed | degraded at 72 h [2, 3]: 58%
SMILES: CC(=O)Nc1c(I)c(C(=O)OCOC(C)=O)c(I)c(N(C)C(C)=O)c1I [Example 10, Acetyloxvmethyl 5-(N-acetylamino)-3-(N-acetyl-N-methylamino)-2,4,6-triiodobenzenecarboxylate]
